Like-named read-outs stand apart in the source and are kept apart here. Marks after values point to notes of the source that are not given here.
Columns and labels:
[1] = both, monkey, in vivo, 0.168 mg/kg
Protocol: (§1) The average deposited dose was calculated at 0.168 mg/kg and 0.536 mg/kg, respectively. Plasma, peripheral blood mononuclear cells (PBMCs), trachea, bronchi, lung lobe, liver, kidney, nasal mucosa and nasopharyngeal mucosa samples were collected in this study.

[2] = PBMC concentrations of metabolites after inhalation in African Green Monkeys; settings: both, monkey, in vivo
Protocol: as §1

[3] = Plasma PK of Formula Ia and metabolites after inhalation in African Green Monkeys; settings: both, monkey, in vivo
Protocol: as §1

SARS-CoV2-Nano viruses = experiment: SARS-CoV-2 antiviral screening (A549-hACE2 cells, Nano luciferase); format: cell-based; settings: Severe acute respiratory syndrome coronavirus 2, 48 h
[4] = Characterisation of milled suspension formulations (osmolarity, pH, particle size); format: physicochemical; settings: 0.5% w/v poloxamer 237, 0.9% sodium chloride
Protocol: The vial capped, vortexed briefly, and then placed in a Bertin Instruments Precellys® Evolution blender. The blender was used to wet mill the mixture for 15×30 second cycles, with 120 second rest time between cycles. The blender speed was 7,200 rpm and cooling set was set to high. After milling, the milled suspension was separated from the beads by withdrawing the suspension from the vial using a syringe with a 1.5'' 25G needle. The recovered volume of the concentrated suspension was noted as 2.97 mL, and the concentration was measured as 25.8 mg/mL. The suspension was diluted with 2.14 mL of vehicle to obtain the target concentration of 15 mg/mL. […] The chiller set to 30° F., pump set to 100 rpm, and agitator set to 3000 rpm. The pump was primed with 100 mL of vehicle, and the first 80 mL of flowthough from priming was sent to waste. The mill was then set to recirculate as feeding continued with the addition of 150 mL of pre-mill formulation intermediate, followed by 25 mL of vehicle rinse. The formulation was allowed to recirculate though the mill for 1 hr, after which the flow was directed to a collection bottle. After 100 mL of concentrated suspension formulation was collected in the bottle, a vehicle chase was fed into the mill. Collection was stopped when the recovered volume reached 250 mL.

[5] = format: physicochemical
Protocol: Samples for freeze-thaw cycling were also prepared and tested. For each condition, the physical stability was measured as % LS (label strength) and compared to % LS at T=0. […] The 7.5% SBECD formulation is also stable to freeze/thaw cycling (three cycles performed).

[6] = format: physicochemical; remark: listed apart in the source
Protocol: For each conditions, the physical stability was measured as % LS and compared to % LS at T=0.

[7] = inhaled or intranasal, 0.168 mg/kg
[8] = inhaled or intranasal, 0.536 mg/kg
[9] = 15 mg/mL in water with 0.1% w/v HPMC
[10] = 7.5% SBECD w/v, 2-8° C., 24 h timepoint
[11] = 7.5% SBECD w/v, RT, 24 h timepoint

N#C[C@@]1(c2ccc3c(N)ncnn23)O[C@H](CO)[C@@H](O)[C@H]1O [Compound A]
mean estimated terminal elimination half-life [1]: 7.58 h | concentration at 2 h ([2]; 0.168 mg/kg): 331 ± 92 nM | concentration at 24 h ([2]; 0.536 mg/kg): 457 ± 130 nM | concentration at 0.25 h ([3]; 0.168 mg/kg): 3 ± 1 nM | concentration at 1 h ([3]; 0.168 mg/kg): 31 ± 7 nM | concentration at 2 h ([3]; 0.168 mg/kg): 25 ± 5 nM | concentration at 24 h ([3]; 0.168 mg/kg): 2 nM | concentration at 0.75 h ([3]; 0.536 mg/kg): 29 ± 8 nM | concentration at 1.52 h ([3]; 0.536 mg/kg): 58 ± 3 nM | concentration at 2 h ([3]; 0.536 mg/kg): 71 ± 11 nM | concentration at 4 h ([3]; 0.536 mg/kg): 43 ± 9 nM | concentration at 8 h ([3]; 0.536 mg/kg): 22 ± 5 nM | concentration at 24 h ([3]; 0.536 mg/kg): 5 ± 1 nM | AUC(0-t) [3, 7]: 0.191 ± 0.03 µM·h | Cmax [3, 7]: 31 ± 7 nM | half-life [3, 7]: 7.58 ± 1.03 h | AUC(0-t) [3, 8]: 0.539 ± 0.076 µM·h | half-life [3, 8]: 7.1 ± 0.36 h

CCC(CC)COC(=O)[C@H](C)N[P@](=O)(OC[C@H]1O[C@@](C#N)(c2ccc3c(N)ncnn23)[C@H](O)[C@@H]1O)Oc1ccccc1 [Formula Ia, (S)-2-ethylbutyl 2-(((S)-(((2R,3S,4R,5R)-5-(4-aminopyrrolo[2,1-f][1,2,4]triazin-7-yl)-5-cyano-3,4-dihydroxytetrahydrofuran-2-yl)methoxy)(phenoxy)phosphoryl)amino)propanoate]
EC50 (SARS-CoV2-Nano viruses): 110 nM | osmolarity [4, 9]: 285 mOsm/kg | pH [4, 9]: 6.89 | volume mean diameter particle size [4, 9]: 3.65 μm | particle size by polarized light microscopy ([4]; 100 mg/mL in water with 0.1% w/v HPMC): < 5 μm | % LS (Initial) ([5]; 5% SBECD w/v): 101 % LS | % LS After Stress, Hold ([5]; 5% SBECD w/v, 2-8° C. (48 h)): 101 % LS | % LS After Stress, Hold After Seeding ([5]; 5% SBECD w/v, 2-8° C. (48 h)): 80 % LS | % LS After Stress, Hold ([5]; 5% SBECD w/v, RT (48 h)): 101 % LS | % LS After Stress, Hold After Seeding ([5]; 5% SBECD w/v, RT (48 h)): 68 % LS | % LS After Stress, Freeze-thaw (3x) ([5]; 5% SBECD w/v, after seeding): 69 % LS | % LS After Stress, Freeze-thaw (3x) ([5]; 5% SBECD w/v, without seeding): 101 % LS | % LS (Initial) ([5]; 7.5% SBECD w/v): 101 % LS | % LS After Stress, Hold [5, 10]: 104* % LS | % LS After Stress, Hold After Seeding [5, 10]: 103* % LS | % LS After Stress, Hold [5, 11]: 103* % LS | % LS After Stress, Hold After Seeding [5, 11]: 102* % LS | % LS After Stress, Freeze-thaw (3x) ([5]; 7.5% SBECD w/v, after seeding): 97 % LS | % LS After Stress, Freeze-thaw (3x) ([5]; 7.5% SBECD w/v, without seeding): 99 % LS | % LS (Initial) ([5]; 10% SBECD w/v): 101 % LS | % LS After Stress, Hold ([5]; 10% SBECD w/v, 2-8° C. (48 h)): 101 % LS | % LS After Stress, Hold After Seeding ([5]; 10% SBECD w/v, 2-8° C. (48 h)): 99 % LS | % LS After Stress, Hold ([5]; 10% SBECD w/v, RT (48 h)): 101 % LS | % LS After Stress, Hold After Seeding ([5]; 10% SBECD w/v, RT (48 h)): 98 % LS | % LS After Stress, Freeze-thaw (3x) ([5]; 10% SBECD w/v, after seeding): 98 % LS | % LS After Stress, Freeze-thaw (3x) ([5]; 10% SBECD w/v, without seeding): 100 % LS | % LS (Initial) ([5]; 20% SBECD w/v): 102 % LS | % LS After Stress, Hold ([5]; 20% SBECD w/v, 2-8° C. (48 h)): 101 % LS | % LS After Stress, Hold After Seeding ([5]; 20% SBECD w/v, 2-8° C. (48 h)): 101 % LS | % LS After Stress, Hold ([5]; 20% SBECD w/v, RT (48 h)): 101 % LS | % LS After Stress, Hold After Seeding ([5]; 20% SBECD w/v, RT (48 h)): 101 % LS | % LS After Stress, Freeze-thaw (3x) ([5]; 20% SBECD w/v, after seeding): 100 % LS | % LS After Stress, Freeze-thaw (3x) ([5]; 20% SBECD w/v, without seeding): 100 % LS | physical stability [6]: stable | % LS T0 ([6]; pH 3.8): 99 % LS | % LS After Stress, Hold ([6]; pH 3.8, 2-8° C. (1 wk)): 99 % LS | % LS After Stress, Hold After Seeding ([6]; pH 3.8, 2-8° C. (1 wk)): 88 % LS | % LS After Stress, Hold ([6]; pH 3.8, 2-8° C. (48 h)): 99 % LS | % LS After Stress, Hold After Seeding ([6]; pH 3.8, 2-8° C. (48 h)): 99 % LS | % LS After Stress, Hold ([6]; pH 3.8, 2-8° C. (72 h)): 99 % LS | % LS After Stress, Hold After Seeding ([6]; pH 3.8, 2-8° C. (72 h)): 99 % LS | % LS After Stress, Hold ([6]; pH 3.8, 2-8° C., 24 h): 100 % LS | % LS After Stress, Hold After Seeding ([6]; pH 3.8, 2-8° C., 24 h): 100 % LS | % LS After Stress, Freeze-thaw (3X) ([6]; pH 3.8, (+) seed): 99 % LS | % LS After Stress, Freeze-thaw (3X) ([6]; pH 3.8, (−) seed): 99 % LS | % LS After Stress, Hold ([6]; pH 3.8, RT (1 wk)): 99 % LS | % LS After Stress, Hold After Seeding ([6]; pH 3.8, RT (1 wk)): 65 % LS | % LS After Stress, Hold ([6]; pH 3.8, RT (24 h)): 100 % LS | % LS After Stress, Hold After Seeding ([6]; pH 3.8, RT (24 h)): 99 % LS | % LS After Stress, Hold ([6]; pH 3.8, RT (48 h)): 99 % LS | % LS After Stress, Hold After Seeding ([6]; pH 3.8, RT (48 h)): 99 % LS | % LS After Stress, Hold ([6]; pH 3.8, RT (72 h)): 99 % LS | % LS After Stress, Hold After Seeding ([6]; pH 3.8, RT (72 h)): 99 % LS | % LS T0 ([6]; pH 4.0): 100 % LS | % LS After Stress, Hold ([6]; pH 4.0, 2-8° C. (1 wk)): 99 % LS | % LS After Stress, Hold ([6]; pH 4.0, 2-8° C. (48 h)): 99 % LS | % LS After Stress, Hold After Seeding ([6]; pH 4.0, 2-8° C. (48 h)): 79 % LS | % LS After Stress, Hold ([6]; pH 4.0, 2-8° C. (72 h)): 100 % LS | % LS After Stress, Hold After Seeding ([6]; pH 4.0, 2-8° C. (72 h)): 67 % LS | % LS After Stress, Hold ([6]; pH 4.0, 2-8° C., 24 h): 100 % LS | % LS After Stress, Hold After Seeding ([6]; pH 4.0, 2-8° C., 24 h): 96 % LS | % LS After Stress, Freeze-thaw (3X) ([6]; pH 4.0, (+) seed): 99 % LS | % LS After Stress, Freeze-thaw (3X) ([6]; pH 4.0, (−) seed): 99 % LS | % LS After Stress, Hold ([6]; pH 4.0, RT (1 wk)): 98 % LS | % LS After Stress, Hold ([6]; pH 4.0, RT (24 h)): 100 % LS | % LS After Stress, Hold After Seeding ([6]; pH 4.0, RT (24 h)): 69 % LS | % LS After Stress, Hold ([6]; pH 4.0, RT (48 h)): 99 % LS | % LS After Stress, Hold After Seeding ([6]; pH 4.0, RT (48 h)): 60 % LS | % LS After Stress, Hold ([6]; pH 4.0, RT (72 h)): 100 % LS | % LS After Stress, Hold After Seeding ([6]; pH 4.0, RT (72 h)): 58 % LS

Source: patent US11701372B2, “Inhalation formulations of 1'-cyano substituted carba-nucleoside analogs” (priority 2020, dated 2023)
